Measurements: patent US6667334B1, “Imidazolidine derivatives, the production thereof, their use and pharmaceutical preparations containing the same” (Aventis Pharma Deutschland GmbH, priority 1998, dated 2003)

target: T1, interaction between VCAM-1 and VLA-4 (Homo sapiens, UniProt P05556+P13612); experiment: U937/VCAM-1 cell adhesion test: adhesion of U937 cells to hVCAM-1(1-3)-IgG; assay type: cell-based; conditions: human U937 cells (ATCC CRL 1593) adhering to hVCAM-1(1-3)-IgG; concentration giving 50% inhibition of adhesion
T1 construct: the VLA-4 integrins, are supplied in their natural form as surface molecules on human U937 cells; host or cells: U937 cells carry the endogenous VLA-4; The partner hVCAM-1(1-3)-IgG was secreted by transfected COS cells (ATCC CRL1651) and used as culture supernatant
Text: The test method used for the activity of the compounds of the formula I on the interaction between VCAM-1 and VLA-4 is an assay which is specific for this interaction. The cellular binding components, i.e. the VLA-4 integrins, are supplied in their natural form as surface molecules on human U937 cells (ATCC CRL 1593), which belong to the leukocytes group. The specific binding components used are genetically engineered recombinant soluble fusion proteins, consisting of the extracytoplasmatic domain of human VCAM-1 and the constant region of a human immunoglobulin of the subclass IgGl.
Assay for the Measurement of the Adhesion of U937 Cells (ATCC CRL 1593) to hVCAM-1(1-3)-IgG
1. Preparation of Human VCAM-1(1-3)-IgG and Human CD4-IgG
A genetic construct for the expression of the extracellular domain of human VCAM-1, associated with the genetic sequence of the heavy chain of human immunoglobulin IgGI (hinge, CH2 and CH3 regions), from Dr. Brian Seed, Massachusetts General Hospital, Boston, USA was employed (cf. Damle and Aruffo, Proc. Natl. Acad. Sci. USA 1991, 88, 6403-6407). The soluble fusion protein hVCAM-1(1-3)-IgG contained the three amino-terminal extracellular immunoglobulin-like domains of human VCAM-1 (Damle and Aruffo, Proc. Natl. Acad. Sci. USA 1991, 88, 6403-6407). CD4-IgG (Zettlmeissl et al., DNA and Cell Biology 1990, 9, 347) served as a fusion protein for negative controls. The recombinant proteins were expressed as soluble proteins after DEAE/dextran-mediated DNA transfection in COS cells (ATCC CRL1651) according to standard procedures (Ausubel et al., Current Protocols in Molecular Biology, John Wiley & Sons, Inc., 1994).
2. Assay for the Measurement of the Adhesion of U937 Cells to hVCAM-1(1-3)-IgG
2.1 96-well microtiter test plates (Nunc Maxisorb) were incubated at room temperature for 1 hour with 100 μl/well of a goat-anti-human IgG antibody solution (10 μg/ml in 50 mM tris, pH 9.5). After removal of the antibody solution, washing was carried out once with PBS.
2.2 150 μl/well of a blocking buffer (1% BSA in PBS) was incubated on the plates at room temperature for 0.5 hour. After removal of the blocking buffer, washing was carried out once with PBS.
2.3 100 μl per well of a cell culture supernatant of transfected COS cells were incubated on the plates at room temperature for 1.5 hours. The COS cells were transfected with a plasmid which codes for the three N-terminal immunoglobulin-like domains of VCAM-1, coupled to the Fc part of human IgG, (hVCAM-1(1-3)-IgG). The content of hVCAM-1(1-3)-IgG was about 0.5-1 μg/ml. After removal of the culture supernatant, washing was carried out once with PBS.
2.4 The plates were incubated at room temperature for 20 minutes with 100 μl/well of Fc receptor blocking buffer (1 mg/ml of γ-globulin, 100 mM NaCl, 100 μM MgCl2, 100 μM MnCl2, 100 μM CaCl2, 1 mg/ml of BSA in 50 mM HEPES, pH 7.5). After removal of the Fc receptor blocking buffer, washing was carried out once with PBS.
2.5 20 μl of binding buffer (100 mM NaCl, 100 μM MgCl2, 100 μM MnCl2, 100 μM CaCl2, 1 mg/ml of BSA in 50 mM HEPES, pH 7.5) were initially introduced, and the substances to be tested were added in 10 μl of binding buffer and incubated for 20 minutes. The controls used were antibodies against VCAM-1 (BBT, No. BBA6) and against VLA-4 (Immunotech, No. 0764).
2.6 U937 cells were incubated in Fc receptor blocking buffer for 20 minutes and then added by pipette in a concentration of 1×10^6/ml and in an amount of 100 μl per well ([…]).
2.7 The plates were slowly immersed at an angle of 45° in stop buffer (100 mM NaCl, 100 μM MgCl2, 100 μM MnCl2, 100 μM CaCl2 in 25 mM tris, pH 7.5) and shaken off. The process was repeated.
2.8 50 μl/well of a dye solution (16.7 μg/ml of Hoechst Dye 33258, 4% formaldehyde, 0.5% Triton X-100 in PBS) were then incubated on the plates for 15 minutes. […]

T1 sequence (P13612 34-1032): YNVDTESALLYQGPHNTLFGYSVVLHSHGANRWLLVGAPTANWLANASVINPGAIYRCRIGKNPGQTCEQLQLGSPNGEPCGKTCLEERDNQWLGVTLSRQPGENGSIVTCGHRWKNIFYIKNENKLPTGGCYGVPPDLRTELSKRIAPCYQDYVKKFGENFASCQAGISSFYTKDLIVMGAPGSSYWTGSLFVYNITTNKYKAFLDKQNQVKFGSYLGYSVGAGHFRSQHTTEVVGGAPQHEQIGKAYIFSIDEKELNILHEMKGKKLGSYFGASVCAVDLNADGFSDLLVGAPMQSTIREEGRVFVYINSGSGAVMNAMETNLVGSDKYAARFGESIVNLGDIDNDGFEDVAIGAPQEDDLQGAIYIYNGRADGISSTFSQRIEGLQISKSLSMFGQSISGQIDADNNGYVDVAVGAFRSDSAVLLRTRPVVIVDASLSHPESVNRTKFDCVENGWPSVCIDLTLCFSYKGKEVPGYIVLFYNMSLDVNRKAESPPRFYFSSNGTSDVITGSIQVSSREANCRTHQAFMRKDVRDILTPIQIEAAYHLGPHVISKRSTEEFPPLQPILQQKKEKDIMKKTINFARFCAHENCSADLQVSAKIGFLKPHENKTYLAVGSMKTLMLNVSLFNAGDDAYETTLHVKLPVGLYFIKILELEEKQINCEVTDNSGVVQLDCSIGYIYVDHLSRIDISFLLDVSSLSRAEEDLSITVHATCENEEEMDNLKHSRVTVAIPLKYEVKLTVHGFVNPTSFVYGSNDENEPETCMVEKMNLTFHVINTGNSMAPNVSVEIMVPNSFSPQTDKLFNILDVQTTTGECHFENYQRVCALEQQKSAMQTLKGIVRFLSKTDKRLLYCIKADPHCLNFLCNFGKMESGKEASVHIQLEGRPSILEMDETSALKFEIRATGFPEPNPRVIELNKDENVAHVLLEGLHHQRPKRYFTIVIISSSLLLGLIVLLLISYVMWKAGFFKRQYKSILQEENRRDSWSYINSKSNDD
T1 sequence (P05556 21-798): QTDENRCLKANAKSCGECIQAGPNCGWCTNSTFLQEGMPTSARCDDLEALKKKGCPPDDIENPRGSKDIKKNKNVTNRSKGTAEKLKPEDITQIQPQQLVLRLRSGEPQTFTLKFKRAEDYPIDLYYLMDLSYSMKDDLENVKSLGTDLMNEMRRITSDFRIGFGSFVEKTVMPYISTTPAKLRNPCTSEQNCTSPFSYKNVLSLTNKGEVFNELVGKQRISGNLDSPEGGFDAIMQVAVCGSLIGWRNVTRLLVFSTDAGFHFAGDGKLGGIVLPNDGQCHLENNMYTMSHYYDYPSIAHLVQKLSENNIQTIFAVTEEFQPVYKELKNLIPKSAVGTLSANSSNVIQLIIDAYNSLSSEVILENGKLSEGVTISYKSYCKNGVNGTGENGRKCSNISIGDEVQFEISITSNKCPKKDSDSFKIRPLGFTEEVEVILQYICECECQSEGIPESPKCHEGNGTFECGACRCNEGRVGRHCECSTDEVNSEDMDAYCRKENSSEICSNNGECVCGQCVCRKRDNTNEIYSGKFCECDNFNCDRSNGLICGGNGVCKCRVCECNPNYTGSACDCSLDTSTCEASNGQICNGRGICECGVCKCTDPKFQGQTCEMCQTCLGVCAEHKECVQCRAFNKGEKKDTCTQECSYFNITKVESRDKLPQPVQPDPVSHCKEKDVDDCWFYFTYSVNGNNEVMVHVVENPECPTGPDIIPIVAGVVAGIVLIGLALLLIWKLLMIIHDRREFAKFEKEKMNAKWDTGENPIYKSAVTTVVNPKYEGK

| Structure (SMILES) | IC50 [µM] |
| --- | --- |
| CC(C)C[C@@H](C(=O)N[C@H](C)CC(=O)O)N1C(=O)N(Cc2ccc(CCc3ccccc3)cc2)C(C)(C)C1=O [Example 2, (R)-3-((S)-2-(4,4-Dimethyl-3-(4-(2-phenylethyl)benzyl)-2,5-dioxoimidazolidin-1-yl)-2-(2-methylpropyl)acetylamino)-3-methylpropionic Acid] | 118 |
| Cc1ccccc1/C=C/c1ccc(CN2C(=O)N([C@@H](CC(C)C)C(=O)N[C@H](C)CC(=O)O)C(=O)C2(C)C)cc1 [Example 8, (R)-3-((S)-2-(4,4-Dimethyl-3-(4-(2-(2-methylphenyl)-vinyl)benzyl)-2,5-dioxoimidazolidin-1-yl)-2-(2-methyl-propyl)acetylamino)-3-methylpropionic Acid] | 2 |
| CC(C)C[C@@H](C(=O)N[C@H](CC(=O)O)c1ccccc1)N1C(=O)N(Cc2ccc(/C=C/c3ccccc3)cc2)C(C)(C)C1=O [Example 3, (R)-3-((S)-2-(4,4-Dimethyl-3-(4-styrylbenzyl)-2,5-dioxoimidazolidin-1-yl)-2-(2-methylpropyl)acetylamino)-3-phenylpropionic Acid] | 0.56 |
| CC(C)C[C@@H](C(=O)NCCC(=O)O)N1C(=O)N(Cc2ccc(/C=C/c3ccccc3)cc2)C(C)(C)C1=O [Example 4, 3-((S)-2-(4,4-Dimethyl-3-(4-styrylbenzyl)-2,5-dioxo-imidazolidin-1-yl)-2-(2-methylpropyl)acetylamino)propionic Acid] | 27.8 |
| CC(C)C[C@@H](C(=O)N[C@H](C)CC(=O)O)N1C(=O)N(Cc2ccc(OCc3ccccc3)cc2)C(C)(C)C1=O [Example 7, (R)-3-((S)-2-(3-(4-Benzyloxybenzyl)-4,4-dimethyl-2,5-dioxoimidazolidin-1-yl)-2-(2-methylpropyl)acetylamino)-3-methylpropionic Acid] | 2.9 |
| CC(C)C[C@@H](C(=O)N[C@H](CC(=O)O)c1ccc2c(c1)OCO2)N1C(=O)N(Cc2ccc(Oc3ccccc3)cc2)C(C)(C)C1=O [Example 6, (R)-3-((S)-2-(4,4-Dimethyl-2,5-dioxo-3-(4-phenyloxy-20 benzyl)imidazolidin-1-yl)-2-(2-methylpropyl)acetylamino)-3-(3,4-methylenedioxyphenyl)propionic Acid] | 16.4 |
| Cc1ccccc1/C=C/c1ccc(CN2C(=O)N([C@@H](CC(C)C)C(=O)N[C@H](CC(=O)O)c3ccccc3)C(=O)C2(C)C)cc1 [Example 9, (R)-3-((S)-2-(4,4-Dimethyl-3-(4-(2-(2-methylphenyl)-vinyl)benzyl)-2,5-dioxoimidazolidin-1-yl)-2-(2-methyl-propyl)acetylamino)-3-phenylpropionic Acid] | 0.18 |
| CC(C)C[C@@H](C(=O)N[C@H](CC(=O)O)c1ccc2c(c1)OCO2)N1C(=O)N(Cc2ccc(/C=C/c3ccccc3)cc2)C(C)(C)C1=O [Example 5, (R)-3-((S)-2-(4,4-Dimethyl-3-(4-styrylbenzyl)-2,5-dioxo-imidazolidin-1-yl)-2-(2-methylpropyl)acetylamino)-3-(3,4-methylenedioxyphenyl)propionic Acid] | 0.15 |
| COc1cccc(C(CC(=O)O)NC(=O)[C@H](CC(C)C)N2C(=O)N(Cc3ccc(/C=C/c4ccccc4)cc3)C(C)(C)C2=O)c1 (stereo partly drawn) [Example 10, 3-((S)-2-(4,4-Dimethyl-3-(4-styrylbenzyl)-2,5-dioxo-imidazolidin-1-yl)-2-(2-methylpropyl)acetylamino)-3-(3-methoxyphenyl)propionic Acid] | 24.5 |
| CC(C)C[C@@H](C(=O)N[C@H](C)CC(=O)O)N1C(=O)N(Cc2ccc(/C=C/c3ccccc3)cc2)C(C)(C)C1=O [Example 1, (R)-3-((S)-2-(4,4-Dimethyl-3-(4-styrylbenzyl)-2,5-dioxoimidazolidin-1-yl)-2-(2-methylpropyl)acetylamino)-3-methylpropionic Acid] | 3.2 |

Second part, the compound after the results:

| IC50 [µM] | Structure (SMILES) |
| --- | --- |
| 34.9 | CCCCc1ccc(C(CC(=O)O)NC(=O)[C@H](CC(C)C)N2C(=O)N(Cc3ccc(/C=C/c4ccccc4)cc3)C(C)(C)C2=O)cc1 (stereo partly drawn) [Example 16, 3-(4-Butylphenyl)-3-((S)-2-(4,4-dimethyl-3-(4-styrylbenzyl)-2,5-dioxoimidazolidin-1-yl)-2-(2-methyl-propyl)acetylamino)propionic Acid] |
| 64.6 | Cc1cccc(C(CC(=O)O)NC(=O)[C@H](CC(C)C)N2C(=O)N(Cc3ccc(/C=C/c4ccccc4)cc3)C(C)(C)C2=O)c1 (stereo partly drawn) [Example 13, 3-((S)-2-(4,4-Dimethyl-3-(4-styrylbenzyl)-2,5-dioxo-imidazolidin-1-yl)-2-(2-methylpropyl)acetylamino)-3-(3-methylphenyl)propionic Acid] |
| 15.3 | CC(C)C[C@@H](C(=O)NC(CC(=O)O)c1ccccc1F)N1C(=O)N(Cc2ccc(/C=C/c3ccccc3)cc2)C(C)(C)C1=O (stereo partly drawn) [Example 14, 3-((S)-2-(4,4-Dimethyl-3-(4-styrylbenzyl)-2,5-dioxo-imidazolidin-1-yl)-2-(2-methylpropyl)acetylamino)-3-(2-fluorophenyl)propionic Acid] |
| 61.5 | CC(C)C[C@@H](C(=O)NC(CC(=O)O)c1cccc(F)c1)N1C(=O)N(Cc2ccc(/C=C/c3ccccc3)cc2)C(C)(C)C1=O (stereo partly drawn) [Example 15, 3-((S)-2-(4,4-Dimethyl-3-(4-styrylbenzyl)-2,5-dioxo-imidazolidin-1-yl)-2-(2-methylpropyl)acetylamino)-3-(3-fluorophenyl)propionic acid] |
| 17.5 | COc1ccc(C(CC(=O)O)NC(=O)[C@H](CC(C)C)N2C(=O)N(Cc3ccc(/C=C/c4ccccc4)cc3)C(C)(C)C2=O)cc1F (stereo partly drawn) [Example 12, 3-((S)-2-(4,4-Dimethyl-3-(4-styrylbenzyl)-2,5-dioxo-imidazolidin-1-yl)-2-(2-methylpropyl)acetylamino)-3-(3-fluoro-4-methoxyphenyl)propionic Acid] |
| 18 | CC(C)C[C@@H](C(=O)NC(CC(=O)O)c1ccc(F)cc1)N1C(=O)N(Cc2ccc(/C=C/c3ccccc3)cc2)C(C)(C)C1=O (stereo partly drawn) [Example 11, 3-((S)-2-(4,4-Dimethyl-3-(4-styrylbenzyl)-2,5-dioxo-imidazolidin-1-yl)-2-(2-methylpropyl)acetylamino)-3-(4-fluorophenyl)propionic Acid] |
| 36.6 | CC(C)C[C@@H](C(=O)NC(CC(=O)O)c1ccc(Cl)cc1)N1C(=O)N(Cc2ccc(/C=C/c3ccccc3)cc2)C(C)(C)C1=O (stereo partly drawn) [Example 17, 3-(4-Chlorophenyl)-3-((S)-2-(4,4-dimethyl-3-(4-styrylbenzyl)-2,5-dioxoimidazolidin-1-yl)-2-(2-methyl-propyl)acetylamino)propionic Acid] |
